The results in this text go back to patent US7399756B2, “Organo-phosphorous compounds for activating gamma/delta T cells” (Bioagency AG, priority 2001, dated 2008).

The test relates to V gamma 9+ T-cells (gamma/delta T-cells). In words: Activation of gamma/delta T-cells: CD25 expression on V gamma 9+ T-cells of peripheral blood lymphocytes, flow cytometry. Format: cell-based, human. The following applies: peripheral blood lymphocytes of healthy donors, 72 hours incubation with IL-2, CD25 activation marker; IPP positive control 10 μM. As to the method:
Lymphocytes were obtained from the peripheral blood of healthy donors by Ficoll density gradient centrifugation. For each test, 2×10^5 of the cells so obtained were seeded in a volume of 0.2 ml of RPMI-1640 medium (Life Technologies) that was enriched with 25 mM HEPES, 2 mM L-glutamine, 0.025 mg/ml of gentamicin, 100 U/ml of human interleukin-2 (IL-2) (all from Life Technologies) and 10% human AB serum (Bavarian Red Cross). The test fractions were added in various dilutions, and isopentenyl diphosphate (IPP) from Sigma was used in a final concentration of 10 μM as a positive control. Incubation was effected in the incubator with 5% CO2 at 37° C. After 72 hours the cells were harvested and analysed in a flow cytometer. In so doing, the expression of the CD25 activation marker on the surface of V gamma 9^+ T-cells was measured with the aid of the monoclonal antibodies CD25-PE (B1.49.9), V gamma 9-FITC (lmmu360) and CD3-PC5 (UCHT1) supplied by Beckman-Coulter.
Lymphocytes were obtained from the peripheral blood of healthy donors by Ficoll density gradient centrifugation. […] After 72 hours the cells were harvested and analysed in a flow cytometer. In so doing, the expression of the CD25 activation marker on the surface of V gamma 9^+ T-cells was measured with the aid of the monoclonal antibodies CD25-PE (B1.49.9), V gamma 9-FITC (Immu360) and CD3-PC5 (UCHT1) supplied by Beckman-Coulter.
On the technique in general: In flow cytometry, cells or beads pass a laser one at a time.

Consider `CC(=CCCP(=O)([O-])OP(=O)([O-])[O-])CO.[Na+].[Na+].[Na+]` [compound 15], for which the “activity relative to IPP (times more active than IPP)” value is “about 500 times”.
With `CC(=CCCP(=O)([O-])CP(=O)([O-])[O-])CO.[Na+].[Na+].[Na+]` [compound 19] the entry was “about 500 times”.
